Results on 16 compounds are retold here after US9783505B2, “Substituted diaminopyrimidyl compounds, compositions thereof, and methods of treatment therewith” (Signal Pharmaceuticals, LLC, priority 2013, dated 2017).

In one test the target is T1, His-PKC-theta (Homo sapiens, UniProt Q04759).
T1 construct: His; purchased Invitrogen
The experiment in a line: PKC-theta Assay (384-well time resolved fluorescence, IMAP TR-FRET). It counts as biochemical. Particulars: read-out: Act. Level (IC50 in the PKC-theta Assay). In short, it runs like this:
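Enzyme at 142 pM phosphorylated 200 nM Fam-S6 peptide with 10 μM ATP in 50 mM HEPES pH 7.6, 10 mM MgCl2, 1 mM DTT for 2 h at room temperature. Product was detected after overnight incubation with IMAP binding reagent and Tb donor by time-resolved FRET.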
(In general: Time-resolved FRET reads energy transfer from a long-lived donor to a nearby acceptor.)

Another test concerns the target T2, PKC delta (Homo sapiens, UniProt Q05655).
T2 construct: purchased Invitrogen
The experiment in a line: PKC delta Assay (384-well time resolved fluorescence, IMAP TR-FRET). It counts as biochemical. The following applies: selectivity for PKC-theta over PKC-delta. On the procedure:
PKC delta Assay. A 384-well time resolved fluorescence assay was used to monitor PKC delta activity. The PKC delta assay was run in the following assay buffer: 50 mM HEPES pH 7.6, 10 mM MgCl2, 1 mM DTT, 0.01% Triton X-100, 0.01% BSA and 0.1 mM EDTA. To initiate the reaction, 200 nM of Fam-labeled S6-derived peptide (Molecular Devices) and 10 μM of ATP were mixed with 1.5 nM of PKC delta (Invitrogen), for a total assay volume of 25 μL in each well. The assay was incubated at room temperature for 2 hours and terminated using a 60 μL/well mixture of Detection Binding Solution: 70% IMAP Progressive Binding Buffer A, 30% IMAP Progressive Binding Buffer B, 1:600 Progressive Binding Reagent, and 1:400 TR-FRET Tb Donor (Molecular Devices). The assay plates were then incubated overnight at room temperature and read on the Perkin-Elmer Envision Reader.

T2 sequence (Q05655 whole entry): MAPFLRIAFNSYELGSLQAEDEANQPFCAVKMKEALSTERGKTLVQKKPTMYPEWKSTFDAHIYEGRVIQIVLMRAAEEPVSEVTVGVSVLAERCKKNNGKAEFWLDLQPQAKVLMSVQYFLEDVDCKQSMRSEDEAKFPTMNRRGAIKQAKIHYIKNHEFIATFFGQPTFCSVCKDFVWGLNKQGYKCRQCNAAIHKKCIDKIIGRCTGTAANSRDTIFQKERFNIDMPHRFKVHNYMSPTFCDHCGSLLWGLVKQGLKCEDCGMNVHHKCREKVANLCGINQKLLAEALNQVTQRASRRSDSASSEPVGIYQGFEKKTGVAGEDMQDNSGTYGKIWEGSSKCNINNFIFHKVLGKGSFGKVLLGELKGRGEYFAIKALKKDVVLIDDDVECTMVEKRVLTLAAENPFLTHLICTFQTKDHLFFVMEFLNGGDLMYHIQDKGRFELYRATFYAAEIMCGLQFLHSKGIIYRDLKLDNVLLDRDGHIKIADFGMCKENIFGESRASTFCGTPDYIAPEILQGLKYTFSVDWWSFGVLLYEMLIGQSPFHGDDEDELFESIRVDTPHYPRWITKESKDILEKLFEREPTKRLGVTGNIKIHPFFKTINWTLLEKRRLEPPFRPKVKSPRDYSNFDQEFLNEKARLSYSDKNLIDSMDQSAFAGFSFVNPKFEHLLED
T1 sequence (Q04759 whole entry): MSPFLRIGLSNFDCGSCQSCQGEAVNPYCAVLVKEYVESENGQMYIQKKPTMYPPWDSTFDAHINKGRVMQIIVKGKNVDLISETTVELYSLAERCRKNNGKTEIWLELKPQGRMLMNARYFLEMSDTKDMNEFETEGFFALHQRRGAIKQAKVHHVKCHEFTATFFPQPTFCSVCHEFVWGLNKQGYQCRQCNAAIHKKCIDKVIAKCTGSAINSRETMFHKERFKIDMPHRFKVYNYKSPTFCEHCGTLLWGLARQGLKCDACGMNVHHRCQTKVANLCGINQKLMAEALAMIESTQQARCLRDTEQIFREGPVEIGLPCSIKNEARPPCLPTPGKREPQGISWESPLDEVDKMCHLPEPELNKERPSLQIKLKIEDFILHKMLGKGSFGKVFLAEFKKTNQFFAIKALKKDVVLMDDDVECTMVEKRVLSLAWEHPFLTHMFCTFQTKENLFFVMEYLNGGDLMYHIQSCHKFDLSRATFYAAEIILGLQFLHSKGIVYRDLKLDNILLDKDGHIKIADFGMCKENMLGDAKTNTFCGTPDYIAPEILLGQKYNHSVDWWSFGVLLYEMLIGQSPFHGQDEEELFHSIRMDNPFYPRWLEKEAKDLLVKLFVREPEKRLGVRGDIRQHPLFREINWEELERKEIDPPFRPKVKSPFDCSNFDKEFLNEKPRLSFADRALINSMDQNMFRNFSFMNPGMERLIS

By IC50 is commonly meant the concentration at which inhibition is half-maximal. For the compound `N#Cc1cnc(NCCc2c[nH]c3cnccc23)nc1N[C@H]1CC[C@@H](C(N)=O)CC1` [Cmpd 320], on His-PKC-theta, the IC50 was in the range of 100 to 800 nM. In addition, on PKC delta, the “Sel. Level (ratio of IC50 PKC-delta/IC50 PKC-theta)” value was “F (selectivity of between 20- and 100-fold (selectivity level F))”.

In the case of `CC1(C)C[C@H](Nc2nc(NCCc3cnoc3)ncc2C#N)CC[C@@H]1O` [Cmpd 222], the half-maximal inhibitory concentration (IC50) at His-PKC-theta lay within 800 to 2000 nM. For the same compound, at PKC delta, the “Sel. Level (ratio of IC50 PKC-delta/IC50 PKC-theta)” value is “G (selectivity between 5- and 20-fold (selectivity level G))”.

Regarding `CCOc1cccc(CCNc2ncc(C#N)c(N[C@@H]3CC[C@H](O)C(C)(C)C3)n2)n1` [Cmpd 257], the IC50 at His-PKC-theta is 800 to 2000 nM. Moreover, the “Sel. Level (ratio of IC50 PKC-delta/IC50 PKC-theta)” value at PKC delta was “G (selectivity between 5- and 20-fold (selectivity level G))”.

As to `CC1(C)C[C@H](Nc2nc(NCCc3c[nH]c4cnccc34)ncc2C#N)CC[C@@H]1O` [Cmpd 283], the half-maximal inhibitory concentration (IC50) at His-PKC-theta was in the range of 100 to 800 nM. The “Sel. Level (ratio of IC50 PKC-delta/IC50 PKC-theta)” value on PKC delta is “F (selectivity of between 20- and 100-fold (selectivity level F))”.

Regarding `CNS(=O)(=O)Cc1ccc2[nH]cc(CCNc3ncc(C#N)c(N[C@@H]4C[C@H](O)C4(C)C)n3)c2c1` [Cmpd 266], the half-inhibitory concentration (IC50) at His-PKC-theta was 2000 to 10000 nM. For the same compound, the “Sel. Level (ratio of IC50 PKC-delta/IC50 PKC-theta)” value on PKC delta was “H (selectivity level of 5-fold or less (selectivity level H))”.

For the compound `CN1C(=O)C(CCNc2ncc(C#N)c(N[C@@H]3C[C@H](C(N)=O)C3(C)C)n2)c2ccccc21` (some centres unmarked) [Cmpd 325], the IC50 at His-PKC-theta fell in the range of 100 to 800 nM. Also, the “Sel. Level (ratio of IC50 PKC-delta/IC50 PKC-theta)” value on PKC delta is “F (selectivity of between 20- and 100-fold (selectivity level F))”.

Take `CC1(C)[C@@H](O)C[C@H]1Nc1nc(NCCc2cnoc2)ncc1C#N` [Cmpd 246]: the half-maximal inhibitory concentration (IC50) on His-PKC-theta lay in the range of 2000 to 10000 nM. Besides, at PKC delta, the “Sel. Level (ratio of IC50 PKC-delta/IC50 PKC-theta)” value is “H (selectivity level of 5-fold or less (selectivity level H))”.

Regarding `CC1(C)C[C@H](Nc2nc(NCCc3cccnc3)ncc2C#N)CC[C@@H]1O` [Cmpd 281], the concentration for half-maximal inhibition (IC50) at His-PKC-theta lay within 800 to 2000 nM. The “Sel. Level (ratio of IC50 PKC-delta/IC50 PKC-theta)” value at PKC delta is “G (selectivity between 5- and 20-fold (selectivity level G))”.

For the compound `CNC(=O)[C@H]1C[C@@H](Nc2nc(NCCc3c[nH]c4ccccc34)ncc2C#N)C1` [Cmpd 289], the IC50 at His-PKC-theta is 800 to 2000 nM. The “Sel. Level (ratio of IC50 PKC-delta/IC50 PKC-theta)” value at PKC delta is “G (selectivity between 5- and 20-fold (selectivity level G))”.

`CC1(C)[C@@H](O)C[C@H]1Nc1nc(NCCn2cccc2)ncc1C#N` [Cmpd 238]: the IC50 at His-PKC-theta is 100 to 800 nM. Also, at PKC delta, the “Sel. Level (ratio of IC50 PKC-delta/IC50 PKC-theta)” value was “G (selectivity between 5- and 20-fold (selectivity level G))”.

Take `Cc1cccnc1CCNc1ncc(C#N)c(N[C@@H]2CC[C@H](O)C(C)(C)C2)n1` [Cmpd 214]: at His-PKC-theta, the half-inhibitory concentration (IC50) was in the range of 2000 to 10000 nM. In addition, the “Sel. Level (ratio of IC50 PKC-delta/IC50 PKC-theta)” value on PKC delta was “H (selectivity level of 5-fold or less (selectivity level H))”.

As to `CC1(C)C(O)C[C@H]1Nc1nc(NCCc2cccnc2)ncc1C#N` (some centres unmarked) [Cmpd 231], at His-PKC-theta, the IC50 fell in the range of 800 to 2000 nM. Moreover, the “Sel. Level (ratio of IC50 PKC-delta/IC50 PKC-theta)” value on PKC delta is “G (selectivity between 5- and 20-fold (selectivity level G))”.

For `CC(F)(F)COc1ncncc1CNc1ncc(C#N)c(N[C@@H]2CCC[C@@H](O)C2(C)C)n1` [Cmpd 297], the IC50 on His-PKC-theta fell in the range of 100 to 800 nM. For the same compound, on PKC delta, the “Sel. Level (ratio of IC50 PKC-delta/IC50 PKC-theta)” value was “F (selectivity of between 20- and 100-fold (selectivity level F))”.

Take `Cc1cccc(CCNc2ncc(C#N)c(N[C@@H]3CC[C@H](O)C(C)(C)C3)n2)n1` [Cmpd 250]: the IC50 on His-PKC-theta is 800 to 2000 nM. Further, at PKC delta, the “Sel. Level (ratio of IC50 PKC-delta/IC50 PKC-theta)” value was “G (selectivity between 5- and 20-fold (selectivity level G))”.

For the compound `CC1(C)[C@@H](Nc2nc(NCCC3C(=O)Nc4ccccc43)ncc2C#N)CCC[C@@H]1O` (some centres unmarked) [Cmpd 305], on His-PKC-theta, the IC50 lay within 100 to 800 nM. Moreover, on PKC delta, the “Sel. Level (ratio of IC50 PKC-delta/IC50 PKC-theta)” value was “G (selectivity between 5- and 20-fold (selectivity level G))”.

As for `CC1(C)C[C@H](Nc2nc(NCCn3ccc4ccccc43)ncc2C#N)CC[C@@H]1O` [Cmpd 202], the IC50 on His-PKC-theta is 2000 to 10000 nM. The “Sel. Level (ratio of IC50 PKC-delta/IC50 PKC-theta)” value at PKC delta was “H (selectivity level of 5-fold or less (selectivity level H))”.
